# Data from patent US20060241178A1, “Compositions and methods for treating lung cancer” (priority 2002, published 2006).
# What was measured:
# [1] = test system: c-Jun (AP-1 pathway) and Akt pathway genes; experiment: Mouse Cancer Pathway Finder Gene Array on lung RNA; format: in vivo, A/J mice; details: PEITC-NAC high dose diet vs control diet
# From the text: Some mice also had developed forestomach masses. […] Findings involving other pathways will be presented.
# [2] = test system: A549 cells; experiment: Cell cycle phase-specific DNA strand breaks (TUNEL) in A549 cells; format: cell-based, human
# Procedure: Detection of cell cycle phase-specific DNA strand breaks (“TUNEL”): A549 cells were fixed with 1% formaldehyde for 15 min and then permabilized by post-fixation in 70% ethanol. The presence of in situ DNA strand breaks, a characteristic feature of apoptosis was detected by labeling them with a fluorochrome-conjugated nucleotide in the reaction catalyzed by the terminal deoxynucleotidyl transferase; cellular DNA was counterstained with DAPI. The kit provided by Phoenix Flow Systems (San Diego, Calif.) was used in this assay. This method is also described in detail elsewhere (Gorczyca et al., Internat J. Oncol. 1992, 1:639-648). Green and red fluorescence of cells probed for DNA strand breaks and DNA content was measured using a FACScan flow cytometer (Becton Dickinson, San Jose, Calif.) with standard settings of green (strand breaks) and red (DNA) fluorescence detection. To calculate the percentage of apoptotic cells in respective phases of cell cycle, DNA content frequency histograms were deconvoluted using CELLQuest software.
# Apoptosis induced by PEITC-NAC occurs predominantly in dividing cells. […] DNA strand breaks during apoptosis was detected by end-labeling, which was combined with analysis of the cellular DNA content. […]
# [3] = test system: A549/TAM67 cells; experiment: Apoptosis in A549/TAM67 transfectants (morphology, DNA fragmentation, annexin V, PARP Western blot); format: cell-based, human; details: 25 μM
# [4] = test system: alveolar epithelium cells of lung; experiment: In situ end-labeling (ISEL/TUNEL) of apoptosis in lung sections; format: in vivo, A/J mice
# [5] = test system: A549 cells; experiment: Apoptosis in A549 cells treated with TPA, PEITC-NAC or TPA plus PEITC-NAC (photography, DAPI staining); format: cell-based, human; details: TPA 100 nM 12 h prior, then PEITC-NAC 24 h
# From the text: Assay for single cell DNA strand breaks: A549 cells treated with or without TPA, PEITC-NAC or TPA plus PEITC-NAC were collected at the times specified in the text, cytocentrifuged and stained with 4′-6′diamidino-2-phenylindole (DAPI). The photographs were taken using an Olympus AX 70 microscope (Melville, N.Y.) with fluorescence and SPOT RT Slider digital image system (Diagnostic Instruments Inc., Sterling Heights, Mich.). Arrows indicated the typical apoptotic features of DNA strand breakage and nuclear fragmentation.
# TPA (100 nM) was added to A549 cells 12 h prior to addition of PEITC-NAC, which was added 24 h before photography of cells, protein isolation, or DAPI staining. […] These cells were treated identically, but were stained with the DNA fluorochrome DAPI.
# [6] = test system: JNK 1 and 2; experiment: Western blot of lung total proteins: JNK phosphorylation; format: in vivo, A/J mice; details: lung tissue 21 days after B(a)P
# [7] = test system: p53; experiment: Western blot of lung proteins: p53 expression and phosphorylation; format: in vivo, A/J mice; details: lungs at termination of the bioassay
# [8] = test system: AP-1 binding activity in A549 cells; experiment: EMSA of AP-1 binding activity in A549 cells; format: cell-based, human
# Procedure: Cell Lines: The human lung adenocarcinoma cell line A549 was obtained from the American Type Culture Collection (ATCC) (Bethesda, Md.). […] Cells were grown at 37° C. with 5% CO2.
# Reagents: The PEITC was obtained from Aldrich (Milwaukee, Wis.) and its N-acetylcysteine conjugate was synthesized in house by the Organic Synthesis Facility using the method described previously (Kassahun et al., Chem Res Toxicol 1997, 10(11):1228-33). Unless specified otherwise, the A549 cells were treated with 10 or 25 μM of PEITC-NAC. TPA (12-O-tetradecanoylphorbol-13-acetate) was purchased from Sigma (St. Louis, Mo.).
# Electrophoretic Mobility Shift Assay (EMSA): Double-stranded oligonucleotides containing the consensus-binding site for AP-1 were purchased commercially (Santa Cruz Biotech). The oligos were labeled with γ-^32P-ATP (6000 Ci/mmol, Armeshem Pharmacia Biotech. Inc Piscataway, N.J.) using polynucleotide kinase (Promega, Madison, Wis.) according to standard procedures. The labeled DNA was incubated with 5 μg of total proteins (as specified in the Results section) for 10 min at room temperature, in the presence of 1 μg of poly d(I)-d(C) oligomer (Roche Molecular Biochemicals, Indianapolis, Ind.) and DNA-binding buffer as described previously (Yang et al., Cell Growth Differ 1993, 4(7):595-602). The complexes were then separated on a 7.5% polyacrylamide gel and autoradiographed.
# Proteins Isolation: Cells were incubated in a 37° C. with 5% CO2, followed by mock or treatments specified in the results section. Total proteins were then isolated using RIPA buffer. The protease inhibitors aprotinin (1 μg/ml), leupeptin (1 μg/ml), pepstatin (1 μg/ml), phenylmethylsulfonyl fluoride (0.1 mM) and the phosphatase inhibitor Na3VO4 (1 mM), NaF (1 mM) were added to all buffers. The protein concentrations were determined using the Coomassie Plus Protein Assay Reagent (Pierce, Rockford, Ill.), and aliquots of the proteins were stored at −80° C.
# [9] = test system: A549/control-vector cells; experiment: Apoptosis in A549/control-vector transfectants (morphology, DNA fragmentation, annexin V, PARP Western blot); format: cell-based, human; details: 25 μM
# [10] = Stability of conjugates in AIN-76A diet (methanol extraction, HPLC); format: physicochemical; details: stored at 4° C. under nitrogen
# Procedure: The ITC conjugates were incorporated (15 μmol/g diet) into AIN-76A diets (5% corn oil) by mixing with dextrose prior to diet preparation. […] After mixing with dextrose, the solvent was removed using a rotary evaporator and further dried using a vacuum pump (2-3 h). Diets were prepared in 1-2 kg batches, and were stored at 4° C. in a container purged with nitrogen. […] Stability was determined by extraction of 0.5 g portions of the diet with 2.5 ml methanol (2×). The methanol extracts were combined and a 1 ml aliquot was filtered using a 0.47 μm syringe filter.
smiles,measurement,setting,value
"CC(=O)N[C@@H](CSC(=S)NCCc1ccccc1)C(=O)O [PEITC-NAC, N-acetylcysteine Conjugate of phenethyl isothiocyanate]",c-Jun expression (AP-1 pathway) and Akt pathway genes,[1],up-regulated
same,cell cycle distribution,"[2]; 25 μM, 16 h",a substantial portion of the cells accumulate in G2M phase
same,apoptotic cells by DNA strand break labeling,"[2]; 50 μM, 24 h",a distinct population of apoptotic cells
same,PARP 89 kD cleavage fragment,[3]; 3 h,a defined 89 kD band
same,cell survival (annexin V-Cy3 / 6-CFDA staining),[3]; 20 h,nearly no cell survival
same,PARP protein,[3]; 24 h,completely degraded
same,"cell survival (morphology, DNA fragmentation)",[3]; 24 h,most TAM67 transfectants had already died
same,"increase in apoptosis, non-tumorous lung tissue",[4]; after 140 days,2.3 fold
same,"apoptotic index, fold elevation","[4]; lung tissue at 84 days, before tumors appeared",approximately 2 fold
same,incidence of apoptosis in TPA-pretreated cells compared with PEITC-NAC alone,[5],a much higher incidence of apoptosis
same,JNK 1 (p46) phosphorylation level,[6],increase
same,JNK 2 (p54) phosphorylation,[6],only slightly induced
same,phosphorylation of p53 at Ser15,[7],stronger increase
same,earliest appearance of AP-1 activation,[8]; 10 μM,30 min
same,concentration of peak AP-1 binding activity,[8]; 24 h treatment,10 µM
same,lowest concentration stimulating AP-1 activation,[8]; 24 h treatment,1 µM
same,PARP 89 kD cleavage fragment,[9]; 3 h,a very light 89 kD cleavage fragment
same,PARP protein,[9]; 24 h,maintained a significant levels of intact PARP protein
same,"cell survival (morphology, DNA fragmentation)",[9]; 24 h,the majority of control-vector transfectants were still alive
same,stability in diet,[10],stable for at least one month
